{
  "source": "patent US8507526B2",
  "about": "“4- [2- (4-methylphenylsulfanyl) phenyl] piperidine for the treatment of irritable bowel syndrome (IBS)” (H. Lundbeck A/S, priority 2007, dated 2013)",
  "tested_on": "chronic constriction nerve injury, peripheral mononeuropathy",
  "assay": "Chronic constriction nerve injury model of neuropathic pain (Von Frey filaments, Hargreaves Plantar Device)",
  "format": "in vivo",
  "details": "rats",
  "from_the_text": "A peripheral mononeuropathy was induced in the right hind limb of rats following a chronic constriction nerve injury, and the development of mechanical allodynia and thermal hyperalgesia was monitored using established behavioural tests (Von Frey filaments and the Hargreaves Plantar Device, respectively).",
  "data": [
    {"smiles": "Cc1ccc(Sc2ccccc2C2CCNCC2)cc1", "note": "[Compound I, 4-[2-(4-methylphenylsulfanyl)phenyl]piperidine]", "values": [
      {"measurement": "paw withdrawal threshold, Von Frey filaments (mechanical allodynia)", "setting": "subcutaneous 1.9, 4.8 and 7.9 mg/kg in 10% hydroxypropyl-betacyclodextrin, right hind paw", "result": "did not increase the paw withdrawal threshold"},
      {"measurement": "paw withdrawal latency, thermal hyperalgesia (Hargreaves Plantar Device)", "setting": "subcutaneous 4.8 and 7.9 mg/kg", "result": "significant increases in paw withdrawal latency"}
    ]}
  ]
}
